Our source for the EC50, IC50 and Activity values is ChEMBL document CHEMBL3352022, “Preparation and biological evaluation of 1'-cyano-2'-C-methyl pyrimidine nucleosides as HCV NS5B polymerase inhibitors” (Bioorg Med Chem Lett, 2014).

In general, EC50 refers to the concentration that produces a half-maximal response. By IC50 is commonly meant the concentration that gives 50% inhibition.

The test system of experiment [1] is Hepatitis C virus. Nature of the experiment: Antiviral activity against HCV1b assessed as inhibition of viral replication by cell based 384 well format assay. It counts as functional, Hepacivirus hominis. The conditions noted are these: genotype 1b.
The test system of experiment [2] is Hepatitis C virus. The experiment in a line: Antiviral activity against HCV1a assessed as inhibition of viral replication by cell based 384 well format assay. Format: functional, Hepacivirus hominis. To be noted: subtype 1a.
A short description of experiment [3]: Inhibition of HCV1b NS5B polymerase. Set-up: species or system Hepatitis C virus subtype 1b.
Experiment [4] has as its system Hepatitis C virus. Nature of the experiment: Antiviral activity against HCV1b in Rluc cells assessed as TP level per million cells after 24 hrs by liquid chromatography. Format: functional, Hepacivirus hominis, genotype 1b.

Consider `C[C@@]1(O)[C@H](O)[C@@H](CO)O[C@@]1(C#N)c1ccc2c(N)ncnn12`, for which the EC50 in the experiment with Hepatitis C virus [1] and in the experiment with Hepatitis C virus [2] was above 89000 nM throughout.

For `C[C@@]1(O)[C@H](O)[C@@H](CO)O[C@@]1(C#N)n1ccc(N)nc1=O`, inhibition in experiment [3] was half-maximal at 17700 nM (IC50). Moreover, the EC50 in the experiment with Hepatitis C virus [1] is above 89000 nM; in the experiment with Hepatitis C virus [2], 76000 nM.

In turn, `C[C@@]1(O)[C@H](O)[C@@H](CO)O[C@@]1(C#N)n1ccc(=O)[nH]c1=O` had an IC50 in experiment [3] of 27000 nM. Also, the EC50 with Hepatitis C virus [1] and with Hepatitis C virus [2] was above 89000 nM each time.

Consider `CC(C)OC(=O)[C@H](C)N[P@](=O)(OC[C@H]1O[C@@](C#N)(n2ccc(N)nc2=O)[C@](C)(O)[C@@H]1OC(=O)C(C)C)Oc1ccccc1`, for which the EC50 came to 600 nM with Hepatitis C virus [1] and 250 nM with Hepatitis C virus [2].

`C[C@@]1(O)[C@H](O)[C@@H](CO)O[C@H]1n1ccc(N)nc1=O` returned an IC50 in experiment [3] of 1670 nM. For the same compound, the EC50 with Hepatitis C virus [1] came to 2800 nM; with Hepatitis C virus [2], 2500 nM.

As to `CC(C)OC(=O)[C@H](C)N[P@+]([O-])(OC[C@H]1O[C@@](C#N)(c2ccc3c(N)ncnn23)[C@](C)(O)[C@@H]1OC(=O)C(C)C)Oc1ccccc1` [GS-6620], the EC50 turned out to be 240 nM in the experiment with Hepatitis C virus [1] and 94 nM in the experiment on Hepatitis C virus [2]. In addition, the Activity in the experiment on Hepatitis C virus [4] is recorded as 40 pmol.
